# Values joined by “and” are separate entries in the source; they are usually repeats but may differ in a detail not shown here. Identical values can stand only once.
# System: cellular gene expression in HeLa rtTA HIV∆Mls cells
# Settings: 9147791-treated cells, replicates
smiles,measurement,value
"Cc1cc(NCc2cccnc2)n2ncc(-c3ccc(Cl)cc3)c2n1 [Compound 791, 3-(4-chlorophenyl)-5-methyl-N-(3-pyridinylmethyl)pyrazolo[1,5-a]pyrimidin-7-amine]",ACTN1 expression level,70.54 and 65.87
same,ADI1 expression level,21.28 and 20.50
same,AGPAT2 expression level,26.74 and 28.83
same,ALDOC expression level,1.08 and 1.02
same,ANXA5 expression level,191.66 and 185.16
same,ANXA6 expression level,69.55 and 59.50
same,AP2M1 expression level,238.02 and 237.30
same,APOBEC3B expression level,8.21 and 6.81
same,ARF1 expression level,151.10 and 145.27
same,ARHGAP11A expression level,26.24 and 25.64
same,ARPC5 expression level,71.19 and 65.59
same,ATP6V0A1 expression level,15.83 and 16.80
same,ATP8B1 expression level,0.78 and 0.65
same,B3GNT1 expression level,9.03 and 9.24
same,BAT3 expression level,82.22 and 79.10
same,BCOR expression level,21.09 and 21.93
same,BCORL1 expression level,5.39 and 5.54
same,BHLHB9 expression level,1.05 and 1.03
same,BMPR1B expression level,0.73 and 0.81
same,BST2 expression level,245.44 and 203.71
same,C1orf115 expression level,6.22 and 6.65
same,C3orf59 expression level,1.02 and 1.00
same,C5orf13 expression level,10.12 and 9.25
same,C5orf15 expression level,25.66 and 24.81
same,C6orf145 expression level,25.69 and 26.94
same,C9orf3 expression level,5.07 and 4.02
same,C9orf163 expression level,0.72 and 0.74
same,C10orf76 expression level,6.17 and 6.53
same,C10orf114 expression level,6.12 and 7.21
same,C14orf147 expression level,24.04 and 21.03
same,C19orf28 expression level,20.85 and 20.05
same,C20orf29 expression level,8.83 and 7.98
same,CALD1 expression level,28.16 and 24.92
same,CAP2 expression level,6.21 and 6.88
same,CAPN1 expression level,47.66 and 45.36
same,CASC5 expression level,8.52 and 8.14
same,CAV2 expression level,13.23 and 12.84
same,CCDC85C expression level,13.99 and 13.05
same,CCDC99 expression level,61.28 and 55.39
same,CCDC102A expression level,2.18 and 1.83
same,CCDC150 expression level,3.18 and 3.23
same,CD276 expression level,44.64 and 46.66
same,CDC42EP3 expression level,3.11 and 2.92
same,CDK1 expression level,61.18 and 65.43
same,CDKL1 expression level,6.48 and 6.73
same,CDKN2C expression level,30.46 and 26.27
same,CGN expression level,1.21 and 1.38
same,CHN1 expression level,6.56 and 6.26
same,CLPTM1L expression level,137.08 and 134.64
same,CNN2 expression level,47.78 and 46.33
same,CNNM3 expression level,10.75 and 11.30
same,COMMD1 expression level,12.70 and 12.99
same,CRTC3 expression level,31.32 and 28.75
same,CSRP2 expression level,30.49 and 33.02
same,CTNND1 expression level,21.98 and 23.56
same,CTTNBP2 expression level,2.16 and 2.53
same,CYTH3 expression level,13.78 and 13.70
same,DAB2 expression level,15.91 and 16.84
same,DAG1 expression level,27.42 and 30.65
same,DBF4B expression level,6.80 and 6.36
same,DCAF6 expression level,12.78 and 12.38
same,DDR1 expression level,23.20 and 20.76
same,DNMT3L expression level,1.04 and 0.90
same,DOCK1 expression level,11.83 and 12.65
same,DOCK8 expression level,1.41 and 1.38
same,DUSP1 expression level,278.63 and 269.45
same,DUSP8 expression level,0.79 and 0.93
same,ECT2 expression level,33.55 and 30.42
same,EMP2 expression level,8.82 and 9.39
same,EPB41L4A expression level,4.70 and 5.12
same,ERCC2 expression level,21.00 and 19.80
same,ESAM expression level,3.07 and 3.33
same,ESYT2 expression level,32.11 and 32.37
same,F2R expression level,28.45 and 29.47
same,FAM13B expression level,9.53 and 8.84
same,FAM83D expression level,34.40 and 31.73
same,FAM127A expression level,137.05 and 133.03
same,FARP1 expression level,32.38 and 34.32
same,FBXL2 expression level,3.80 and 3.59
same,FDFT1 expression level,43.70 and 46.85
same,FGFR3 expression level,5.45 and 6.20
same,FSTL1 expression level,31.24 and 29.61
same,FUBP1 expression level,41.68 and 44.21
same,FZR1 expression level,11.76 and 10.90
same,GALNT2 expression level,52.29 and 59.07
same,GATSL1 expression level,3.56 and 3.66
same,GLCCI1 expression level,5.50 and 5.98
same,GLI2 expression level,1.61 and 1.91
same,GNG10 expression level,35.68 and 34.10
same,GPR176 expression level,6.89 and 6.58
same,GTF3C1 expression level,29.06 and 29.38
same,H3F3A expression level,242.14 and 260.31
same,HACL1 expression level,8.70 and 8.40
same,HDAC1 expression level,74.08 and 73.05
same,HEG1 expression level,6.29 and 6.77
same,HIST1H3B expression level,1.94 and 1.96
same,HMGB3 expression level,28.50 and 26.71
same,HMGN3 expression level,74.54 and 69.90
same,HNRNPH2 expression level,55.22 and 51.55
same,HSPB8 expression level,24.33 and 26.14
same,ICK expression level,4.87 and 5.19
same,ID3 expression level,119.77 and 102.82
same,IDH2 expression level,17.89 and 18.64
same,IDI1 expression level,13.51 and 16.55
same,IKBIP expression level,8.02 and 8.05
same,INCENP expression level,24.44 and 25.00
same,INO80C expression level,1.90 and 1.87
same,JUB expression level,13.13 and 12.45
same,KANK2 expression level,20.68 and 20.72
same,KHDRBS1 expression level,80.26 and 74.92
same,KIF3B expression level,14.85 and 14.03
same,KIF5C expression level,0.60 and 0.55
same,KIF11 expression level,24.10 and 21.47
same,KIF18B expression level,12.16 and 12.54
same,KIF20B expression level,12.24 and 11.00
same,KIFC1 expression level,47.71 and 45.30
same,KITLG expression level,11.50 and 12.57
same,KLF9 expression level,12.26 and 10.78
same,KLHDC3 expression level,56.38 and 53.87
same,KPNA2 expression level,179.32 and 162.46
same,LAPTM4B expression level,71.83 and 68.84
same,LMO7 expression level,19.87 and 20.69
same,LRRC16A expression level,6.80 and 7.88
same,MAML2 expression level,2.44 and 2.29
same,MANF expression level,42.22 and 45.27
same,MAP3K14 expression level,8.59 and 8.30

# Source: paper PMC5267425, “Identification of small molecule modulators of HIV-1 Tat and Rev protein accumulation” (Retrovirology, 2017)
